Source: PMC4844702, “Selective inhibition of the kinase DYRK1A by targeting its folding process” (Nature Communications, 2016)

Target: T1, SRM (Homo sapiens, UniProt Q9H3Y6)
T1 construct: purchased Carna Biosciences
Test: Kinase panel (Carna)
Assay type: biochemical
From the text: Detailed information on the assay conditions is available on the website of Carna Biosciences (http://www.carnabio.com).

T1 sequence (Q9H3Y6 whole entry): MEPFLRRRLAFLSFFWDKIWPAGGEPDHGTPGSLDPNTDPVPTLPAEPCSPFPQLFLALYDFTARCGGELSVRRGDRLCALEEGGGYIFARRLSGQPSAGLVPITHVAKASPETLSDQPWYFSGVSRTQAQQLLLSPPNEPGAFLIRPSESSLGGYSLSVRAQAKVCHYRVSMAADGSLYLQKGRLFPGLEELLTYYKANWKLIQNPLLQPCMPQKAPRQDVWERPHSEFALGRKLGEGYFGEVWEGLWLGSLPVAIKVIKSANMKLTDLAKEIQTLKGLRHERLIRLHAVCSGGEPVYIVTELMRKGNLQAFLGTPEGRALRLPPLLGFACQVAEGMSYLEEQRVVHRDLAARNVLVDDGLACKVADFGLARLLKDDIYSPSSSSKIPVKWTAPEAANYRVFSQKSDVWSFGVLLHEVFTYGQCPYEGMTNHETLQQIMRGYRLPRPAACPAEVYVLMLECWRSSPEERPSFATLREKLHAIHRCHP

## COc1ccc(/C=C2\SC(=S)NC2=O)cc1C#C[Si](C)(C)C [FINDY]
  inhibition at 10 µM: 32.9%
